The experiment deals with T1, human Edg-1 receptor (Homo sapiens, UniProt P21453).
T1 construct: FLAG (N); expressed in transfected cells; membrane preparation
Description: GTP-γ-S assay using human Edg-1 receptors (SPA, CHO Flp-In cell membrane preparation). The format is biochemical. To be noted: test compound at 10 μM, high control 10 μM S1P regarded as 100% activation, background-corrected, triplicate; for activation at 10 µM: read-out: % Activation (Edg-1 receptor activation in percent of the activation by 10 μM S1P). From the text:
Determination of the Pharmacological Activity A) GTP-γ-S Assay Using Human Edg-1 Receptors
In order to determine the Edg-1 receptor activation by the compounds of the invention, a GTP-γ-S (guanosine 5′-[γ-thio]triphosphate) assay for G-protein coupled receptor binding based on the scintillation proximity assay principle was used, employing a cell membrane preparation from a CHO Flp-In cell line which constitutively overexpresses the human Edg-1 receptor.
The Flp-In™ expression system (Invitrogen, cat. no. K6010-01) allows the generation of stable mammalian cell lines into which the gene of interest has been integrated through homologous recombination at a specific genomic location called Flp Recombination Target (FRT) site by means of a Flp recombinase encoded by the pOG44 expression plasmid. The integration of the pcDNA5/FRT expression construct into the Flp-In host cell line genome results in the transcription of the gene of interest. The stably transfected cells become hygromycin-resistant.
One day prior to transfection, 200 000 Flp-In-CHO cells were seeded in Ham F-12 medium (Invitrogen, cat. no. 31765) supplemented with 10% fetal calf serum (FCS; Perbio Science, cat. no. SH30068.03) in a 6-well plate and incubated at 37° C./5% CO2 overnight. Using the FuGENE® 6 transfection reagent (Roche, cat. no. 11988387001), cells were cotransfected with the Flp recombinase expression plasmid pOG44 and a modified plasmid additionally containing the edg-1 gene (accession no. NM_001400) termed as pcDNA5-FRT-TO_nFLAG_DEST-EDG-1 with a 9:1 ratio. To obtain the modified pcDNA5-FRT-TO_nFLAG_DEST plasmid, the Invitrogen plasmid pcDNA5/FRT/TO (Invitrogen, cat. no. V6520-20) was adapted to the Gateway® (Invitrogen) cloning system by inserting a Gateway cassette containing attR recombination sites flanking a ccdB gene and a chloramphenicol-resistance gene (Gateway conversion system, Invitrogen, cat. no. 11828-029). In addition a FLAG tag epitope was added before the 5′ att recombination site to allow recombinant expression of N-terminally FLAG-tagged proteins.
For the transfection of one well, 1.08 μg of pOG44 and 0.12 μg of pcDNA5-FRT-TO_nFLAG_DEST-EDG-1 were mixed with 100 μl of serum-free Ham F-12 medium containing 6 μl of FuGENE® 6 transfection reagent. After 20 min of incubation, the transfection reagent/DNA complex was distributed dropwise on the cells. The cells were incubated for 24 h at 37° C. Then the cells from 3 wells each were transferred to a T75 flask (Greiner Cellstar®, cat. no. 658175) containing Ham F-12 medium supplemented with 10% of FCS but without antibiotic and were incubated another 24 h. 48 h after transfection, the medium was replaced by selection medium (Ham F-12 supplemented with 10% of FCS and 300 μg/ml of hygromycin B (Invitrogen, cat. no. 10687-010)). The medium was exchanged every 2 to 3 days until a resistant population of cells had grown. […] After 2 weeks of selection, the cells were transferred into T175 flasks (Greiner Cellstar®, cat. no. 660175) and cultivated for batch production. Cells were harvested from the culture flasks by short treatment (2 to 5 min) with Accutase (PAA, cat. no. L11-007), resuspended in selection medium (see above) and centrifuged at 200×g for 5 min. Cells were resuspended in a mixture of 90% of FCS and 10% of dimethylsulfoxide and stored frozen in liquid nitrogen.
A membrane preparation was obtained by standard methods from the afore-described CHO Flp-In cell line constitutively overexpressing the human Edg-1 receptor. Briefly, the cryopreserved cells were taken in culture and grown until confluency in T175 cell culture flasks (Becton Dickinson, cat. no. 35 5001). […]

SMILES strings stand for the structures.

T1 sequence (P21453 whole entry): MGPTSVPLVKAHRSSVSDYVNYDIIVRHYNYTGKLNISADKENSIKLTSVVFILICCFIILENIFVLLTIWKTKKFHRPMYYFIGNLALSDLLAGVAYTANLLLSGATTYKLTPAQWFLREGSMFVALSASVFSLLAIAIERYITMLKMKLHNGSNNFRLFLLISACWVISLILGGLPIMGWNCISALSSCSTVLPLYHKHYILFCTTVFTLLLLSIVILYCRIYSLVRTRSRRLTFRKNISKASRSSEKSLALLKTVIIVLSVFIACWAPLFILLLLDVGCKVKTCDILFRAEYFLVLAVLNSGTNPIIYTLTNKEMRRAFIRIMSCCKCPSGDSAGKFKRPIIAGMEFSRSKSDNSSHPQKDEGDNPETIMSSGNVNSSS

In the case of `CCCOc1nc(Oc2c(C)cccc2Cl)nc2oc(-c3cccc(C)c3)nc12` [Example 91, 5-(2-chloro-6-methyl-phenoxy)-7-propoxy-2-(3-methyl-phenyl)-oxazolo[5,4-d]pyrimidine], the activation at 10 µM is 105%.
Turning to `CCCOc1nc(Oc2cc(C)nn2C)nc2oc(-c3cccc(C)c3)nc12` [Example 25, 5-(2,5-dimethyl-2H-pyrazol-3-yloxy)-7-propoxy-2-(3-methyl-phenyl)-oxazolo[5,4-d]pyrimidine], the activation at 10 µM came out at 110%.
Same read-out and setting: the figure for `CCCOc1nc(Oc2ccccc2F)nc2oc(-c3cccc(OC)c3)nc12` [Example 40, 5-(2-fluoro-phenoxy)-2-(3-methoxy-phenyl)-7-propoxy-oxazolo[5,4-d]pyrimidine] is 120%; for `CCCOc1nc(Oc2ccccc2F)nc2oc(-c3ccc(Cl)c(Cl)c3)nc12` [Example 15, 2-(3,4-dichloro-phenyl)-5-(2-fluoro-phenoxy)-7-propoxy-oxazolo[5,4-d]pyrimidine] it is 95%.
On the same count and under the same terms, the figure for `CCCOc1nc(Oc2ccccc2CCC)nc2oc(-c3cccc(C)c3)nc12` [Example 126, 7-propoxy-5-(2-propyl-phenoxy)-2-(3-methyl-phenyl)-oxazolo[5,4-d]pyrimidine] is 121%; for `COc1c(C)cc(-c2nc3c(OC4COC4)nc(Oc4ccccc4F)nc3o2)cc1C` [Example 8, 5-(2-Fluoro-phenoxy)-2-(4-methoxy-3,5-dimethyl-phenyl)-7-(oxetan-3-yloxy)-oxazolo[5,4-d]pyrimidine] it is 124%; for `CCCOc1nc(Oc2ccccc2F)nc2oc(-c3cc(C)c(OC)c(C)c3)nc12` [Example 5, 5-(2-Fluoro-phenoxy)-2-(4-methoxy-3,5-dimethyl-phenyl)-7-propoxy-oxazolo[5,4-d]pyrimidine] it is 111%.
In the case of `CCCOc1nc(Sc2ccccc2)nc2oc(-c3cc(F)ccc3Cl)nc12` [Example 150, 2-(2-chloro-5-fluoro-phenyl)-5-phenylsulfanyl-7-propoxy-oxazolo[5,4-d]pyrimidine], the activation at 10 µM was determined as 92%.
For `CCCOc1nc(Oc2ccccc2F)nc2oc(-c3cccc(F)c3)nc12` [Example 31, 5-(2-fluoro-phenoxy)-2-(3-fluoro-phenyl)-7-propoxy-oxazolo[5,4-d]pyrimidine], the activation at 10 µM stood at 80%.
On the same count and under the same terms, the figure for `CCCOc1nc(Oc2cccc(SC(F)(F)F)c2)nc2oc(-c3cc(F)ccc3Cl)nc12` [Example 68, 2-(2-chloro-5-fluoro-phenyl)-7-propoxy-5-(3-trifluoromethylsulfanyl-phenoxy)-oxazolo[5,4-d]pyrimidine] is 41%; for `CCCOc1nc(Oc2cc(Cl)ccc2C)nc2oc(-c3cccc(C)c3)nc12` [Example 115, 5-(5-chloro-2-methyl-phenoxy)-7-propoxy-2-(3-methyl-phenyl)-oxazolo[5,4-d]pyrimidine] it is 96%.
On the same count and under the same terms, the figure for `CCOc1nc(Oc2ccccc2F)nc2oc(-c3cc(C)c(OC)c(C)c3)nc12` [Example 46, 7-ethoxy-5-(2-fluoro-phenoxy)-2-(4-methoxy-3,5-dimethyl-phenyl)-oxazolo[5,4-d]pyrimidine] is 102%.
On to `CCCOc1nc(Oc2ccccc2F)nc2oc(-c3cc(C)c(O)c(C)c3)nc12` [Example 6, 5-(2-Fluoro-phenoxy)-2-(4-hydroxy-3,5-dimethyl-phenyl)-7-propoxy-oxazolo[5,4-d]pyrimidine], for which the activation at 10 µM is 105%.
Still for that read-out and setting: the figure for `CCOc1nc(Oc2ccccc2F)nc2oc(-c3ccc[n+]([O-])c3)nc12` [Example 7, 7-Ethoxy-5-(2-fluoro-phenoxy)-2-(1-oxy-pyridin-3-yl)-oxazolo[5,4-d]pyrimidine] is 116%.
Turning to `CCCOc1nc(Oc2ccccc2C(C)C)nc2oc(-c3cccc(C)c3)nc12` [Example 124, 5-(2-isopropyl-phenoxy)-7-propoxy-2-(3-methyl-phenyl)-oxazolo[5,4-d]pyrimidine], the activation at 10 µM turned out to be 112%.
The same measure, in the same setting: the figure for `CCCOc1nc(NC2CCOCC2)nc2oc(-c3cccc(C)c3)nc12` [Example 3, (7-Propoxy-2-(3-methyl-phenyl)-oxazolo[5,4-d]pyrimidin-5-yl)-(tetrahydro-pyran-4-yl)-amine] is 74%.
For the compound `CCOc1nc(Oc2ccccc2F)nc2oc(-c3cc(F)ccc3Cl)nc12` [Example 30, 2-(2-chloro-5-fluoro-phenyl)-7-ethoxy-5-(2-fluoro-phenoxy)-oxazolo[5,4-d]pyrimidine], the activation at 10 µM worked out at 134%.
As to `C=CCCCOc1nc(OCC2CC2)c2nc(-c3cccc(C)c3)oc2n1` [Example 16, 7-cyclopropylmethoxy-5-pent-4-enyloxy-2-(3-methyl-phenyl)-oxazolo[5,4-d]pyrimidine], the activation at 10 µM is 83%.
Still for that read-out and setting: the figure for `CCCOc1nc(Oc2cccc(OCC)c2)nc2oc(-c3cccc(C)c3)nc12` [Example 93, 5-(3-ethoxy-phenoxy)-7-propoxy-2-(3-methyl-phenyl)-oxazolo[5,4-d]pyrimidine] is 60%.
The same measure, in the same setting: the figure for `CCCOc1nc(Oc2ccc(=O)n(C)n2)nc2oc(-c3cccc(C)c3)nc12` [Example 56, 2-methyl-6-(7-propoxy-2-(3-methyl-phenyl)-oxazolo[5,4-d]pyrimidin-5-yloxy)-2H-pyridazin-3-one] is 97%.
On the same count and under the same terms, the figure for `CCCOc1nc(Oc2cccc(OC)c2)nc2oc(-c3cccc(C)c3)nc12` [Example 118, 5-(3-methoxy-phenoxy)-7-propoxy-2-(3-methyl-phenyl)-oxazolo[5,4-d]pyrimidine] is 98%; for `CCCOc1nc(Oc2ccc(Cl)cc2OC)nc2oc(-c3cccc(F)c3)nc12` [Example 60, 5-(4-chloro-2-methoxy-phenoxy)-2-(3-fluoro-phenyl)-7-propoxy-oxazolo[5,4-d]pyrimidine] it is 80%; for `Fc1ccccc1Oc1nc(OCC2CC2)c2nc(-c3ccc(Cl)c(Cl)c3)oc2n1` [Example 158, 7-cyclopropylmethoxy-2-(3,4-dichloro-phenyl)-5-(2-fluoro-phenoxy)-oxazolo[5,4-d]pyrimidine] it is 69%.
For `Cc1cccc(-c2nc3c(OCC4CC4)nc(OC4COC4)nc3o2)c1` [Example 39, 7-cyclopropylmethoxy-5-(oxetan-3-yloxy)-2-(3-methyl-phenyl)-oxazolo[5,4-d]pyrimidine], the activation at 10 µM stood at 47%.
The same measure, in the same setting: the figure for `CCCOc1nc(Oc2c(F)cccc2F)nc2oc(-c3cccc(C)c3)nc12` [Example 97, 5-(2,6-difluoro-phenoxy)-7-propoxy-2-(3-methyl-phenyl)-oxazolo[5,4-d]pyrimidine] is 124%.
For `CCCOc1nc(NC2CCC(C)CC2)nc2oc(-c3cc(F)ccc3Cl)nc12` (stereo not shown) [Example 148, [2-(2-chloro-5-fluoro-phenyl)-7-propoxy-oxazolo[5,4-d]pyrimidin-5-yl]-(4-methyl-cyclohexyl)-amine], the “% Activation (Edg-1 receptor activation in percent of the activation by 10 μM S1P)” value turned out to be 58%.
On to `CCCOc1nc(OC2CCOCC2)nc2oc(-c3cccc(C)c3)nc12` [Example 71, 7-propoxy-5-(tetrahydro-pyran-4-yloxy)-2-(3-methyl-phenyl)-oxazolo[5,4-d]pyrimidine], for which the activation at 10 µM came to 102%.
On the same count and under the same terms, the figure for `CCCOc1nc(Oc2ccc(OC)cc2F)nc2oc(-c3cccc(C)c3)nc12` [Example 75, 5-(2-fluoro-4-methoxy-phenoxy)-7-propoxy-2-(3-methyl-phenyl)-oxazolo[5,4-d]pyrimidine] is 72%.
